From patent US20110250686A1 (CELLARTIS AB, priority 2006, published 2011)

Tested on: hepatocyte-like cells
Conditions: against VitroHES reference protocol

morphology / appearance of hepatocyte-like cells: improved the appearance of the HCLC
SMILES: C[C@@H]1C[C@H]2[C@@H]3CCC4=CC(=O)C=C[C@]4(C)[C@@]3(F)[C@@H](O)C[C@]2(C)[C@@]1(O)C(=O)CO [Dexamethasone]
